# Tests used:
# [1] = test system: HL-60; test: Antiproliferative activity against human HL60 cells after 96 hrs by MTT assay; type: functional; conditions: HL-60, 96 h
# [2] = test system: U-937; test: Antiproliferative activity against human U937 cells after 96 hrs by MTT assay; type: functional; conditions: U-937, 96 h
# [3] = test system: K562; test: Antiproliferative activity against human K562 cells after 96 hrs by MTT assay; type: functional; conditions: K562, 96 h
# [4] = test system: NB-4; test: Antiproliferative activity against human NB4 cells after 96 hrs by MTT assay; type: functional; conditions: NB-4, 96 h
# [5] = test system: PC-3; test: Antiproliferative activity against human PC3 cells after 96 hrs by MTT assay; type: functional; conditions: PC-3, 96 h
# [6] = test system: LNCaP; test: Antiproliferative activity against human LNCAP cells after 96 hrs by MTT assay; type: functional
# [7] = test system: MDA-MB-231; test: Antiproliferative activity against human MDA-MB-231 cells after 96 hrs by MTT assay; type: functional; conditions: MDA-MB-231, 96 h
# [8] = Selectivity ratio of GI50 for human MCF7 cells to GI50 for human MCF7/ADR cells; type: functional
# [9] = test system: MCF7; test: Antiproliferative activity against human MCF7 cells after 96 hrs by MTT assay; type: functional; conditions: MCF7, 96 h
# [10] = test system: NCI/ADR-RES; test: Antiproliferative activity against human MCF7/ADR cells after 96 hrs by MTT assay; type: functional
# [11] = Apparent terminal half life in Sprague-Dawley rat at 10 mg/kg, iv administered as single dose by LC-MS/MS analysis; type: ADME, organism-based; conditions: in vivo, read-out: betat1/2(app) (converted)
# [12] = Cmax in Sprague-Dawley rat at 10 mg/kg, iv administered as single dose by LC-MS/MS analysis; type: ADME, organism-based; design: dose 10 mg/kg, route intravenous; conditions: in vivo
# [13] = AUC (0 to t) in Sprague-Dawley rat at 10 mg/kg, iv administered as single dose by LC-MS/MS analysis; type: ADME, organism-based; conditions: in vivo
# [14] = AUC (0 to infinity) in Sprague-Dawley rat at 10 mg/kg, iv administered as single dose by LC-MS/MS analysis; type: ADME, organism-based; design: dose 10 mg/kg, route intravenous, time infinity; conditions: in vivo
# [15] = Apparent volume of distribution in Sprague-Dawley rat at 10 mg/kg, iv administered as single dose by LC-MS/MS analysis; type: ADME, organism-based; conditions: in vivo, read-out: Vz
# [16] = Apparent clearance in Sprague-Dawley rat at 10 mg/kg, iv administered as single dose by LC-MS/MS analysis; type: ADME, organism-based; conditions: in vivo, read-out: CL(app) (converted)
# [17] = MRT (0 to infinity) in Sprague-Dawley rat at 10 mg/kg, iv administered as single dose by LC-MS/MS analysis; type: ADME, organism-based; conditions: in vivo
# [18] = Plasma concentration in Sprague-Dawley rat at 10 mg/kg, iv administered as single dose measured at 0.083 hrs post dosing by LC-MS/MS analysis; type: ADME, organism-based
# [19] = Plasma concentration in Sprague-Dawley rat at 10 mg/kg, iv administered as single dose measured at 0.25 hrs post dosing by LC-MS/MS analysis; type: ADME, organism-based
# [20] = Plasma concentration in Sprague-Dawley rat at 10 mg/kg, iv administered as single dose measured at 0.5 hrs post dosing by LC-MS/MS analysis; type: ADME, organism-based
# [21] = Plasma concentration in Sprague-Dawley rat at 10 mg/kg, iv administered as single dose measured at 1 hr post dosing by LC-MS/MS analysis; type: ADME, organism-based
# [22] = Plasma concentration in Sprague-Dawley rat at 10 mg/kg, iv administered as single dose measured at 2 hrs post dosing by LC-MS/MS analysis; type: ADME, organism-based
# [23] = Plasma concentration in Sprague-Dawley rat at 10 mg/kg, iv administered as single dose measured at 4 hrs post dosing by LC-MS/MS analysis; type: ADME, organism-based
# [24] = Plasma concentration in Sprague-Dawley rat at 10 mg/kg, iv administered as single dose measured at 8 hrs post dosing by LC-MS/MS analysis; type: ADME, organism-based
# [25] = Plasma concentration in Sprague-Dawley rat at 10 mg/kg, iv administered as single dose measured at 24 hrs post dosing by LC-MS/MS analysis; type: ADME, organism-based
compound,measurement,setting,value
C[C@H]1[C@@H](O)O[C@@H]2O[C@@]3(C)CC[C@H]4[C@H](C)CC[C@@H]1[C@@]24OO3 [ARTENIMOL],GI50,[1],191 nM
same,GI50,[2],910 nM
same,GI50,[3],> 10000 nM
same,GI50,[4],151 nM
same,GI50,[5],> 10000 nM
same,GI50,[6],> 10000 nM
same,GI50,[7],12600 nM
same,RatioGI50,[8],10
CC(=O)N1N=C(c2ccc(O[C@H]3O[C@@H]4O[C@@]5(C)CC[C@H]6[C@H](C)CC[C@@H]([C@H]3C)[C@@]46OO5)cc2)CC1c1ccc(Cl)cc1 (some centres not stated),GI50,[7],160 nM
same,GI50,[9],220 nM
same,GI50,[10],30 nM
same,RatioGI50,[8],7.3
C[C@H]1[C@H](Oc2ccc(-c3cc(-c4ccccc4)[nH]n3)cc2)O[C@@H]2O[C@@]3(C)CC[C@H]4[C@H](C)CC[C@@H]1[C@@]24OO3,GI50,[7],960 nM
same,GI50,[9],260 nM
same,GI50,[10],19 nM
same,RatioGI50,[8],13.7
CC(=O)N1N=C(c2ccc(O[C@@H]3O[C@@H]4O[C@@]5(C)CC[C@H]6[C@H](C)CC[C@@H]([C@H]3C)[C@@]46OO5)cc2)CC1c1ccc(Cl)cc1 (some centres not stated),GI50,[7],400 nM
same,GI50,[9],500 nM
same,GI50,[10],35 nM
same,RatioGI50,[8],14.3
CC(=O)N1N=C(c2ccc(O[C@H]3O[C@@H]4O[C@@]5(C)CC[C@H]6[C@H](C)CC[C@@H]([C@H]3C)[C@@]46OO5)cc2)CC1c1ccccc1 (some centres not stated),GI50,[1],25 nM
same,GI50,[2],40 nM
same,GI50,[3],73 nM
same,GI50,[4],29 nM
same,GI50,[5],110 nM
same,GI50,[6],93 nM
same,GI50,[7],420 nM
same,GI50,[9],130 nM
same,GI50,[10],61 nM
same,RatioGI50,[8],2.1
same,half-life,[11],232 min
same,Cmax,[12],2430 ng/mL
same,AUC(0-t),[13],4140 ng·h/mL
same,AUC(0-inf),[14],4170 ng·h/mL
same,Vd,[15],13.7 L/kg
same,clearance,[16],41.3 mL/min/kg
same,MRT inf,[17],3.07 h
same,concentration at 0.083 h,[18],2430 ng/mL
same,concentration at 0.25 h,[19],1900 ng/mL
same,concentration at 0.5 h,[20],1260 ng/mL
same,concentration at 1 h,[21],935 ng/mL
same,concentration at 2 h,[22],523 ng/mL
same,concentration at 4 h,[23],224 ng/mL
same,concentration at 8 h,[24],63.9 ng/mL
same,concentration at 24 h,[25],6.73 ng/mL
COc1ccc(-c2cc(-c3ccc(O[C@@H]4O[C@@H]5O[C@@]6(C)CC[C@H]7[C@H](C)CC[C@@H]([C@H]4C)[C@@]57OO6)cc3)n[nH]2)cc1,GI50,[7],1420 nM
same,GI50,[9],440 nM
same,GI50,[10],52 nM
same,RatioGI50,[8],8.5
C[C@H]1[C@H](Oc2ccc(-c3cc(-c4ccc(Cl)cc4)[nH]n3)cc2)O[C@@H]2O[C@@]3(C)CC[C@H]4[C@H](C)CC[C@@H]1[C@@]24OO3,GI50,[7],630 nM
same,GI50,[9],440 nM
same,GI50,[10],31 nM
same,RatioGI50,[8],14.2
CC(=O)N1N=C(c2ccc(O[C@H]3O[C@@H]4O[C@@]5(C)CC[C@H]6[C@H](C)CC[C@@H]([C@H]3C)[C@@]46O5)cc2)CC1c1ccccc1 (some centres not stated),GI50,[9],11000 nM
CC(=O)N1N=C(c2ccc(O[C@H]3O[C@@H]4O[C@@]5(C)CC[C@H]6[C@H](C)CC[C@@H]([C@H]3C)[C@@]46OO5)cc2)CC1c1ccc(Br)cc1 (some centres not stated),GI50,[7],370 nM
same,GI50,[9],300 nM
same,GI50,[10],26 nM
same,RatioGI50,[8],11.5
C[C@H]1[C@@H](Oc2ccc(-c3cc(-c4ccc(Br)cc4)[nH]n3)cc2)O[C@@H]2O[C@@]3(C)CC[C@H]4[C@H](C)CC[C@@H]1[C@@]24OO3,GI50,[7],410 nM
same,GI50,[9],340 nM
same,GI50,[10],33 nM
same,RatioGI50,[8],10.3
COc1ccc(C2CC(c3ccc(O[C@H]4O[C@@H]5O[C@@]6(C)CC[C@H]7[C@H](C)CC[C@@H]([C@H]4C)[C@@]57OO6)cc3)=NN2C(C)=O)c(OC)c1 (some centres not stated),GI50,[7],240 nM
same,GI50,[9],500 nM
same,GI50,[10],25 nM
same,RatioGI50,[8],20
COc1ccc(-c2cc(-c3ccc(O[C@@H]4O[C@@H]5O[C@@]6(C)CC[C@H]7[C@H](C)CC[C@@H]([C@H]4C)[C@@]57OO6)cc3)n[nH]2)c(OC)c1,GI50,[7],760 nM
same,GI50,[9],500 nM
same,GI50,[10],41 nM
same,RatioGI50,[8],12.2
CC(=O)N1N=C(c2ccc(O[C@@H]3O[C@@H]4O[C@@]5(C)CC[C@H]6[C@H](C)CC[C@@H]([C@H]3C)[C@@]46OO5)cc2)CC1c1ccccc1 (some centres not stated),GI50,[7],1230 nM
same,GI50,[9],570 nM
same,GI50,[10],50 nM
same,RatioGI50,[8],14.2
COc1ccc(-c2cc(-c3ccc(O[C@H]4O[C@@H]5O[C@@]6(C)CC[C@H]7[C@H](C)CC[C@@H]([C@H]4C)[C@@]57OO6)cc3)n[nH]2)cc1,GI50,[7],870 nM
same,GI50,[9],560 nM
same,GI50,[10],28 nM
same,RatioGI50,[8],20
COc1ccc(C2CC(c3ccc(O[C@@H]4O[C@@H]5O[C@@]6(C)CC[C@H]7[C@H](C)CC[C@@H]([C@H]4C)[C@@]57OO6)cc3)=NN2C(C)=O)c(OC)c1 (some centres not stated),GI50,[7],580 nM
same,GI50,[9],380 nM
same,GI50,[10],58 nM
same,RatioGI50,[8],6.6
C[C@@H]1CC[C@H]2[C@@H](C)C(O)O[C@@H]3O[C@@]4(C)CC[C@@H]1[C@]32O4 (some centres not stated),GI50,[9],> 400000 nM
COc1cccc2c1C(=O)c1c(O)c3c(c(O)c1C2=O)C[C@@](O)(C(=O)CO)C[C@@H]3O[C@H]1C[C@H](N)[C@H](O)[C@H](C)O1.Cl [DOXORUBICIN HYDROCHLORIDE],GI50,[7],120 nM
same,GI50,[9],54 nM
same,GI50,[10],540 nM
same,RatioGI50,[8],0.1
C[C@H]1[C@@H](Oc2ccc(-c3cc(-c4ccc(Cl)cc4)[nH]n3)cc2)O[C@@H]2O[C@@]3(C)CC[C@H]4[C@H](C)CC[C@@H]1[C@@]24OO3,GI50,[7],920 nM
same,GI50,[9],190 nM
same,GI50,[10],55 nM
same,RatioGI50,[8],3.6
Oc1ccc(-c2cc(-c3ccccc3)n[nH]2)cc1,GI50,[9],21200 nM
same,GI50,[10],18200 nM
same,RatioGI50,[8],1.66
CC(=O)N1N=C(c2ccc(O[C@@H]3O[C@@H]4O[C@@]5(C)CC[C@H]6[C@H](C)CC[C@@H]([C@H]3C)[C@@]46OO5)cc2)CC1c1ccc(Br)cc1 (some centres not stated),GI50,[7],580 nM
same,GI50,[9],980 nM
same,GI50,[10],150 nM
same,RatioGI50,[8],6.5
COc1ccc(C2CC(c3ccc(O[C@H]4O[C@@H]5O[C@@]6(C)CC[C@H]7[C@H](C)CC[C@@H]([C@H]4C)[C@@]57OO6)cc3)=NN2C(C)=O)cc1 (some centres not stated),GI50,[7],500 nM
same,GI50,[9],320 nM
same,GI50,[10],28 nM
same,RatioGI50,[8],11.4
CC(=O)N1N=C(c2ccc(O)cc2)CC1c1ccccc1 (configuration not stated),GI50,[9],29100 nM
same,GI50,[10],38000 nM
same,RatioGI50,[8],0.77
COc1ccc(C2CC(c3ccc(O[C@@H]4O[C@@H]5O[C@@]6(C)CC[C@H]7[C@H](C)CC[C@@H]([C@H]4C)[C@@]57OO6)cc3)=NN2C(C)=O)cc1 (some centres not stated),GI50,[7],990 nM
same,GI50,[9],300 nM
same,GI50,[10],51 nM
same,RatioGI50,[8],5.9
C[C@H]1[C@H](Oc2ccc(-c3cc(-c4ccc(Br)cc4)[nH]n3)cc2)O[C@@H]2O[C@@]3(C)CC[C@H]4[C@H](C)CC[C@@H]1[C@@]24OO3,GI50,[7],550 nM
same,GI50,[9],440 nM
same,GI50,[10],30 nM
same,RatioGI50,[8],14.7
COc1ccc(-c2cc(-c3ccc(O[C@H]4O[C@@H]5O[C@@]6(C)CC[C@H]7[C@H](C)CC[C@@H]([C@H]4C)[C@@]57OO6)cc3)n[nH]2)c(OC)c1,GI50,[7],670 nM
same,GI50,[9],330 nM
same,GI50,[10],33 nM
same,RatioGI50,[8],10

# From ChEMBL document CHEMBL4251553, “Synthesis, anticancer evaluation and pharmacokinetic study of novel 10-O-phenyl ethers of dihydroartemisinin” (Eur J Med Chem, 2017)
